From paper PMC5218480 (PLoS ONE, 2017)

Test system: MV-4-11 cells
Test: Gene expression microarray analysis (Affymetrix PrimeView) and GSEA
Assay type: cell-based, human
Parameters: RFU PODN (11730768_x_at) / Fold change /veh PODN (11730768_x_at) / RFU LINC00158 (11744669_a_at) / Fold change /veh LINC00158 (11744669_a_at) / RFU DUSP10 (11751237_a_at) / Fold change /veh DUSP10 (11751237_a_at) / RFU ID3 (11757404_x_at) / Fold change /veh ID3 (11757404_x_at) / RFU PLEKHG5 (11737974_s_at) / Fold change /veh PLEKHG5 (11737974_s_at) / RFU LRRC4B (11730491_at) / Fold change /veh LRRC4B (11730491_at) / RFU GIMAP4 (11747438_a_at) / Fold change /veh GIMAP4 (11747438_a_at) / RFU KRT8 (11758183_x_at) / Fold change /veh KRT8 (11758183_x_at) / RFU CNN1 (11734310_a_at) / Fold change /veh CNN1 (11734310_a_at) / RFU VPS37D (11726825_at) / Fold change /veh VPS37D (11726825_at) / RFU C10orf10 (11716522_x_at) / Fold change /veh C10orf10 (11716522_x_at) / RFU KIR2DL2 /// KIR2DL4 /// KIR2DL5A /// KIR2DL5B /// KIR2DS1 /// KIR2DS2 /// KIR2DS3 /// KIR2DS4 /// KIR3DL3 /// KIR3DL3 /// KIR3DS1 (11738374_at) / Fold change /veh KIR2DL2 /// KIR2DL4 /// KIR2DL5A /// KIR2DL5B /// KIR2DS1 /// KIR2DS2 /// KIR2DS3 /// KIR2DS4 /// KIR3DL3 /// KIR3DL3 /// KIR3DS1 (11738374_at) / RFU C1QL1 (11718748_at) / Fold change /veh C1QL1 (11718748_at) / RFU TMPRSS4 (11747572_a_at) / Fold change /veh TMPRSS4 (11747572_a_at) / RFU HAMP (11756126_x_at) / Fold change /veh HAMP (11756126_x_at) / RFU RNFT2 (11725882_a_at) / Fold change /veh RNFT2 (11725882_a_at) / RFU NR4A2 (11747474_a_at) / Fold change /veh NR4A2 (11747474_a_at) / RFU ABCC12 (11746883_a_at) / Fold change /veh ABCC12 (11746883_a_at) / RFU TMEM136 (11760407_x_at) / Fold change /veh TMEM136 (11760407_x_at) / RFU CLDN22 /// WWC2 (11732394_at) / Fold change /veh CLDN22 /// WWC2 (11732394_at) / RFU HLA-DPB1 (11760878_x_at) / Fold change /veh HLA-DPB1 (11760878_x_at) / RFU SPINT1 (11716480_a_at) / Fold change /veh SPINT1 (11716480_a_at) / RFU GAP43 (11754022_s_at) / Fold change /veh GAP43 (11754022_s_at) / RFU A4GNT (11735810_at) / Fold change /veh A4GNT (11735810_at) / RFU PRB3 (11715151_x_at) / Fold change /veh PRB3 (11715151_x_at) / RFU TUBB4B (11761932_at) / Fold change /veh TUBB4B (11761932_at) / RFU CAPN14 (11732068_a_at) / Fold change /veh CAPN14 (11732068_a_at) / RFU TMCC2 (11721928_a_at) / Fold change /veh TMCC2 (11721928_a_at) / RFU IRGQ (11745062_a_at) / Fold change /veh IRGQ (11745062_a_at) / RFU FAM174B (11720279_a_at) / Fold change /veh FAM174B (11720279_a_at) / RFU TMPRSS4 (11748680_a_at) / Fold change /veh TMPRSS4 (11748680_a_at) / RFU FAM212B (11763350_a_at) / Fold change /veh FAM212B (11763350_a_at) / RFU PLEKHG5 (11743358_a_at) / Fold change /veh PLEKHG5 (11743358_a_at) / RFU ZSCAN30 (11745921_a_at) / Fold change /veh ZSCAN30 (11745921_a_at) / RFU CMKLR1 (11741424_a_at) / Fold change /veh CMKLR1 (11741424_a_at) / RFU LOC101060620 /// MAPK8IP1 (11723275_at) / Fold change /veh LOC101060620 /// MAPK8IP1 (11723275_at) / RFU SPTSSB (11747773_x_at) / Fold change /veh SPTSSB (11747773_x_at) / RFU PRSS12 (11739890_at) / Fold change /veh PRSS12 (11739890_at) / RFU BIN1 (11741810_x_at) / Fold change /veh BIN1 (11741810_x_at) / RFU WNT11 (11732464_a_at) / Fold change /veh WNT11 (11732464_a_at) / RFU C10orf10 (11716521_a_at) / Fold change /veh C10orf10 (11716521_a_at) / RFU C5orf56 (11738089_at) / Fold change /veh C5orf56 (11738089_at) / RFU CYB561 (11721691_x_at) / Fold change /veh CYB561 (11721691_x_at) / RFU ANKRD19P (11752326_a_at) / Fold change /veh ANKRD19P (11752326_a_at) / RFU OR2T12 /// OR2T33 /// OR2T8 (11738714_s_at) / Fold change /veh OR2T12 /// OR2T33 /// OR2T8 (11738714_s_at) / RFU VCAN (11748164_a_at) / Fold change /veh VCAN (11748164_a_at) / RFU JSRP1 (11732532_at) / Fold change /veh JSRP1 (11732532_at) / RFU KRTAP10-11 (11738290_x_at) / Fold change /veh KRTAP10-11 (11738290_x_at) / RFU MYO3A (11730013_a_at) / Fold change /veh MYO3A (11730013_a_at) / RFU EBF3 (11725865_a_at) / Fold change /veh EBF3 (11725865_a_at) / RFU CAMK2N1 (11719241_x_at) / Fold change /veh CAMK2N1 (11719241_x_at) / RFU C5orf56 (11738088_a_at) / Fold change /veh C5orf56 (11738088_a_at) / RFU OLFML3 (11715873_a_at) / Fold change /veh OLFML3 (11715873_a_at) / RFU LOC100653217 /// NTM (11731650_a_at) / Fold change /veh LOC100653217 /// NTM (11731650_a_at) / RFU MAPK11 (11762145_a_at) / Fold change /veh MAPK11 (11762145_a_at) / RFU FIZ1 (11724087_x_at) / Fold change /veh FIZ1 (11724087_x_at) / RFU OASL (11726364_x_at) / Fold change /veh OASL (11726364_x_at) / RFU SOX15 (11748057_x_at) / Fold change /veh SOX15 (11748057_x_at) / RFU CD79A (11719716_a_at) / Fold change /veh CD79A (11719716_a_at) / RFU HIST1H1D (11736915_at) / Fold change /veh HIST1H1D (11736915_at) / RFU CASKIN2 (11723855_a_at) / Fold change /veh CASKIN2 (11723855_a_at) / RFU LOC730098 (11760151_x_at) / Fold change /veh LOC730098 (11760151_x_at) / RFU OR4N2 (11742367_at) / Fold change /veh OR4N2 (11742367_at) / RFU PRRT2 (11749266_a_at) / Fold change /veh PRRT2 (11749266_a_at) / RFU SNX32 (11753110_a_at) / Fold change /veh SNX32 (11753110_a_at) / RFU CDHR5 (11726645_a_at) / Fold change /veh CDHR5 (11726645_a_at) / RFU RCAN1 (11760418_a_at) / Fold change /veh RCAN1 (11760418_a_at) / RFU FAM167A (11723789_a_at) / Fold change /veh FAM167A (11723789_a_at) / RFU FAM26E (11764081_at) / Fold change /veh FAM26E (11764081_at) / RFU ISYNA1 (11749810_s_at) / Fold change /veh ISYNA1 (11749810_s_at) / RFU ACY1 (11761880_at) / Fold change /veh ACY1 (11761880_at) / RFU 11764098_at / Fold change /veh 11764098_at / RFU SAMD14 (11745864_x_at) / Fold change /veh SAMD14 (11745864_x_at) / RFU NPB (11741838_a_at) / Fold change /veh NPB (11741838_a_at) / RFU TMPRSS6 (11731388_a_at) / Fold change /veh TMPRSS6 (11731388_a_at) / RFU KRTAP10-2 (11738614_at) / Fold change /veh KRTAP10-2 (11738614_at) / RFU ARHGAP8 /// PRR5-ARHGAP8 (11727945_x_at) / Fold change /veh ARHGAP8 /// PRR5-ARHGAP8 (11727945_x_at) / RFU KRTAP5-7 /// NADSYN1 (11734609_at) / Fold change /veh KRTAP5-7 /// NADSYN1 (11734609_at) / RFU RASL12 (11751679_a_at) / Fold change /veh RASL12 (11751679_a_at) / RFU CDKN2B (11736163_a_at) / Fold change /veh CDKN2B (11736163_a_at) / RFU PRF1 (11729649_at) / Fold change /veh PRF1 (11729649_at) / RFU, ZNF638 /// ZNF638-IT1 / Fold change vs veh, ZNF638 /// ZNF638-IT1 / RFU, PANK3 / Fold change vs veh, PANK3 / RFU, SH3YL1 / Fold change vs veh, SH3YL1 / RFU, ZEB2 / Fold change vs veh, ZEB2 / RFU, NRIP1 / Fold change vs veh, NRIP1 / RFU, PTTG1IP / Fold change vs veh, PTTG1IP / RFU, CAPN2 / Fold change vs veh, CAPN2 / RFU, MED14 / Fold change vs veh, MED14 / RFU, SNORA58 / Fold change vs veh, SNORA58 / RFU, C1orf63 / Fold change vs veh, C1orf63 / RFU, LRRFIP1 / Fold change vs veh, LRRFIP1 / RFU, NDUFAF7 / Fold change vs veh, NDUFAF7 / RFU, SLC12A2 / Fold change vs veh, SLC12A2 / RFU, IBTK / Fold change vs veh, IBTK / RFU, ESF1 / Fold change vs veh, ESF1 / Fold change vs veh, TMEM50B / RFU, TAOK1 / Fold change vs veh, TAOK1 / RFU, ACBD3 / Fold change vs veh, ACBD3 / RFU, TMA16 / Fold change vs veh, TMA16 / RFU, RWDD3 / Fold change vs veh, RWDD3 / RFU, BCAT1 / Fold change vs veh, BCAT1 / RFU, EDEM3 / Fold change vs veh, EDEM3 / RFU, TMEM33 / Fold change vs veh, TMEM33 / RFU, WDR75 / Fold change vs veh, WDR75 / RFU, AHCTF1 / Fold change vs veh, AHCTF1 / RFU, TFRC / Fold change vs veh, TFRC / RFU, ZDHHC17 / Fold change vs veh, ZDHHC17 / RFU, NOM1 / Fold change vs veh, NOM1 / RFU, ARL8B / Fold change vs veh, ARL8B / RFU, ZBTB11 / Fold change vs veh, ZBTB11 / RFU, TAMM41 / Fold change vs veh, TAMM41 / RFU, KIAA1704 /// LOC100996395 / Fold change vs veh, KIAA1704 /// LOC100996395 / RFU, ING1 / Fold change vs veh, ING1 / RFU, TRMT61B / Fold change vs veh, TRMT61B / RFU, FUBP3 / Fold change vs veh, FUBP3 / RFU, TP53 / Fold change vs veh, TP53 / RFU, TNKS2 / Fold change vs veh, TNKS2 / RFU, ZFP14 / Fold change vs veh, ZFP14 / RFU, ACTR2 / Fold change vs veh, ACTR2 / RFU, PPP3R1 / Fold change vs veh, PPP3R1 / RFU, PIK3R1 / Fold change vs veh, PIK3R1 / RFU, HNRNPA1 / Fold change vs veh, HNRNPA1 / RFU, RNF170 / Fold change vs veh, RNF170 / RFU, ZNF28 / Fold change vs veh, ZNF28 / RFU, RNGTT / Fold change vs veh, RNGTT / RFU, OGT / Fold change vs veh, OGT / RFU, BRD1 / Fold change vs veh, BRD1 / RFU, MARS / Fold change vs veh, MARS / RFU, ZNF655 / Fold change vs veh, ZNF655 / RFU, FAHD1 / Fold change vs veh, FAHD1 / RFU, BDP1 / Fold change vs veh, BDP1 / RFU, LRRCC1 / Fold change vs veh, LRRCC1 / RFU, ARID1A / Fold change vs veh, ARID1A / RFU, ZNF146 / Fold change vs veh, ZNF146 / RFU, ZNF330 / Fold change vs veh, ZNF330 / RFU, GPN3 / Fold change vs veh, GPN3 / RFU, C9orf123 / Fold change vs veh, C9orf123 / RFU, N4BP2L2 / Fold change vs veh, N4BP2L2 / RFU, ARFIP1 / Fold change vs veh, ARFIP1 / RFU, FAM179B / Fold change vs veh, FAM179B / RFU, BCL10 / Fold change vs veh, BCL10 / RFU, UHRF1BP1L / Fold change vs veh, UHRF1BP1L / RFU, BET1 / Fold change vs veh, BET1 / RFU, CNOT2 / Fold change vs veh, CNOT2 / RFU, ZNF268 / Fold change vs veh, ZNF268 / Fold change vs veh, ZNF507 / RFU, DGCR2 / Fold change vs veh, DGCR2 / RFU, WDSUB1 / Fold change vs veh, WDSUB1 / Fold change vs veh, HSP90B1 /// MIR3652 / RFU, ADSS / Fold change vs veh, ADSS / RFU, GK / Fold change vs veh, GK / RFU, ZNF148 / Fold change vs veh, ZNF148 / RFU, TAF9 / Fold change vs veh, TAF9 / RFU, SLC1A5 / Fold change vs veh, SLC1A5 / RFU, SLMO2 / Fold change vs veh, SLMO2 / RFU, ABCC4 / Fold change vs veh, ABCC4 / RFU, LOC101060439 /// RAP1B / Fold change vs veh, LOC101060439 /// RAP1B / RFU, RFX7 / Fold change vs veh, RFX7 / RFU, GTPBP10 / Fold change vs veh, GTPBP10 / RFU, CNEP1R1 / Fold change vs veh, CNEP1R1 / RFU, BIVM-ERCC5 /// ERCC5 / Fold change vs veh, BIVM-ERCC5 /// ERCC5 / RFU, ILF3 / Fold change vs veh, ILF3 / RFU 11762660_at / Fold change /veh 11762660_at / RFU VCAN (11757783_s_at) / Fold change /veh VCAN (11757783_s_at) / RFU DDX43 (11728927_at) / Fold change /veh DDX43 (11728927_at) / RFU KRT8 (11758188_x_at) / Fold change /veh KRT8 (11758188_x_at) / RFU NKD1 (11759106_at) / Fold change /veh NKD1 (11759106_at) / RFU SRD5A1 (11742802_a_at) / Fold change /veh SRD5A1 (11742802_a_at) / RFU TPSAB1 /// TPSB2 (11721975_s_at) / Fold change /veh TPSAB1 /// TPSB2 (11721975_s_at) / RFU GSTM3 (11746129_a_at) / Fold change /veh GSTM3 (11746129_a_at) / RFU IL23R (11737362_x_at) / Fold change /veh IL23R (11737362_x_at) / RFU TMEM51 (11727254_a_at) / Fold change /veh TMEM51 (11727254_a_at) / RFU PIWIL2 (11732686_x_at) / Fold change /veh PIWIL2 (11732686_x_at) / RFU ORM1 (11744905_x_at) / Fold change /veh ORM1 (11744905_x_at) / RFU CCDC152 (11743942_at) / Fold change /veh CCDC152 (11743942_at) / RFU ECM1 (11717891_a_at) / Fold change /veh ECM1 (11717891_a_at) / RFU IL23R (11748794_a_at) / Fold change /veh IL23R (11748794_a_at) / RFU TNFAIP8L3 (11732012_x_at) / Fold change /veh TNFAIP8L3 (11732012_x_at) / RFU MBOAT4 (11741988_at) / Fold change /veh MBOAT4 (11741988_at) / RFU 11764193_at / Fold change /veh 11764193_at / RFU TMEM53 (11763286_at) / Fold change /veh TMEM53 (11763286_at) / RFU MAGEB2 (11727129_at) / Fold change /veh MAGEB2 (11727129_at) / RFU TMEM200A (11744735_a_at) / Fold change /veh TMEM200A (11744735_a_at) / RFU CCDC152 (11751479_a_at) / Fold change /veh CCDC152 (11751479_a_at) / RFU FAM211A (11726209_a_at) / Fold change /veh FAM211A (11726209_a_at) / RFU RGS16 (11746705_a_at) / Fold change /veh RGS16 (11746705_a_at) / RFU VCAN (11755009_s_at) / Fold change /veh VCAN (11755009_s_at) / RFU RHOB (11743442_s_at) / Fold change /veh RHOB (11743442_s_at) / RFU RGS16 (11720943_a_at) / Fold change /veh RGS16 (11720943_a_at) / RFU RGS16 (11720944_at) / Fold change /veh RGS16 (11720944_at) / RFU, VPS4B / Fold change vs veh, VPS4B / RFU, CREB1 / Fold change vs veh, CREB1 / RFU, DNAJC13 / Fold change vs veh, DNAJC13 / RFU, GNAQ / Fold change vs veh, GNAQ / RFU, CDK5R1 / Fold change vs veh, CDK5R1 / RFU, ZRANB3 / Fold change vs veh, ZRANB3 / RFU, CUL4A / Fold change vs veh, CUL4A / RFU, CCNY / Fold change vs veh, CCNY / RFU, UFL1 / Fold change vs veh, UFL1 / RFU, COG3 / Fold change vs veh, COG3 / RFU, DIAPH2 / Fold change vs veh, DIAPH2 / RFU, SKA2 / Fold change vs veh, SKA2 / RFU, AFF3 / Fold change vs veh, AFF3 / RFU, LMF1 / Fold change vs veh, LMF1 / RFU, IPO11 / Fold change vs veh, IPO11 / RFU, DFFB / Fold change vs veh, DFFB / RFU, FOXP1 / Fold change vs veh, FOXP1 / RFU, CARD8 / Fold change vs veh, CARD8 / RFU, STRN3 / Fold change vs veh, STRN3 / RFU, ADK / Fold change vs veh, ADK / RFU, RASSF2 / Fold change vs veh, RASSF2 / RFU, WIPF1 / Fold change vs veh, WIPF1 / RFU, LARP1B / Fold change vs veh, LARP1B / RFU, RASA1 / Fold change vs veh, RASA1 / RFU, RB1 / Fold change vs veh, RB1 / RFU, PPFIA1 / Fold change vs veh, PPFIA1 / RFU, MAT2A / Fold change vs veh, MAT2A / RFU, CCT5 / Fold change vs veh, CCT5 / RFU, WDR92 / Fold change vs veh, WDR92 / RFU, CUX1 / Fold change vs veh, CUX1 / RFU, TTC7A / Fold change vs veh, TTC7A / RFU, TMEM135 / Fold change vs veh, TMEM135 / RFU, DEPTOR / Fold change vs veh, DEPTOR / RFU, CPM / Fold change vs veh, CPM / RFU, DNAJB6 / Fold change vs veh, DNAJB6 / RFU, CACNA2D3 / Fold change vs veh, CACNA2D3 / RFU, DTX4 / Fold change vs veh, DTX4 / RFU, TFCP2 / Fold change vs veh, TFCP2 / RFU, GMCL1 /// GMCL1P1 / Fold change vs veh, GMCL1 /// GMCL1P1 / RFU, AEBP2 / Fold change vs veh, AEBP2 / RFU, SNHG1 /// SNORD22 /// SNORD25 /// SNORD26 /// SNORD27 /// SNORD28 /// SNORD29 /// SNORD31 / Fold change vs veh, SNHG1 /// SNORD22 /// SNORD25 /// SNORD26 /// SNORD27 /// SNORD28 /// SNORD29 /// SNORD31 / Fold change (Aza/veh), C12orf56 (ProbeSet 11735607_a_at) / Fold change (ACY-1035/veh), C12orf56 (ProbeSet 11735607_a_at) / Fold change (Aza/veh), FGFR1OP (ProbeSet 11751329_s_at) / Fold change (ACY-1035/veh), FGFR1OP (ProbeSet 11751329_s_at) / Fold change (Aza/veh), VPS36 (ProbeSet 11739960_a_at) / Fold change (ACY-1035/veh), VPS36 (ProbeSet 11739960_a_at) / RFU SYPL1 (11715823_x_at) / Fold change /veh SYPL1 (11715823_x_at) / RFU IGFBP7 (11715501_s_at) / Fold change /veh IGFBP7 (11715501_s_at) / RFU REEP3 (11722064_at) / Fold change /veh REEP3 (11722064_at) / RFU IGLL1 (11728026_x_at) / Fold change /veh IGLL1 (11728026_x_at): dose or concentration left out as unconfirmed
Details: MV-4-11 cells, 48 hours

Nc1ncn([C@@H]2O[C@H](CO)[C@@H](O)[C@H]2O)c(=O)n1 [azacitidine]
Fold change /veh TMEM51 (11727254_a_at): 1.21
